From patent US8790891B2, “Microfluidic cell motility assay” (The General Hospital Corporation, priority 2009, dated 2014)
Entries after “also recorded” stand apart in the source; their conditions may differ.

System: MDA-MB231 breast cancer cells
Assay: Microcapillary motility assay (MMA) with agents that alter microtubule dynamics
Type: cell-based, human
Settings: for kymograph analysis of single cell motility: 18 hour period, FIG. 13; for concentration at which persistent motility is inhibited: microcapillaries, no chemical gradient; for effect on persistent migration behavior: different concentrations, summary of Example 11; for effect on speed of cancer cell migration through the microcapillary array: result in words
Description: Referring now to FIGS. 7A-7B, a microcapillary motility assay (MMA) device 700 including microfluidic devices 750 were manufactured by casting polydimethyl siloxane (PDMS, Dow Corning, Midland. Mich.) on a microstructured mold. The microstructured mold was fabricated using standard photolithographic technologies. A silicon wafer was coated with a 10 μm thin layer of photoresist (SU8, Microchem, Newton, Mass.) and processed following the standard protocol as recommended by the manufacturer. A second, thicker layer of approximately 50 μm was then photopatterned on the same wafer and aligned with respect to the first layer in order to define the connections between the capillaries and the wells. The mold was placed in a Petri-dish and covered with PDMS freshly prepared according to the manufacturer's instructions. After baking for 8 hours at 65° C., the cast PDMS was removed from the mold, one microwell for each device was punched using a 2 mm puncher, and each device was cut using a 5 mm puncher. After exposure for 20 seconds to oxygen plasma in a plasma asher (March, Concord, Calif.), the devices were individually bonded on the coverslips at the bottom of 24-well plates (Mattek, Ashland, Mass.).
After bonding, and while the PDMS was still hydrophilic, 2 μL of a solution of 2 μg/mL collagen IV was added inside the center microwell of each device. The strong capillary force ensured the collagen solution filled the capillaries. Excess collagen was later washed away by adding 5 μL of phosphate buffer (PBS) in only one well of the devices. Alternatively, 2 μL of Matrigel (BD Biosciences, San Jose, Calif.) was added in one well at 4° C. and the entire plate was heated to 37° C. for 5 minutes.
Before performing each migration assay, cells growing in cell culture flasks were washed with PBS, lifted from the surface using trypsin or 10 mM calcium chelator solution in buffer (EDTA, Sigma Aldrich, St. Louis, Mo.), suspended into 10 mL of media, centrifuged, and re-suspended into media at 10^6 cells/mL. Cells were then seeded in one well of each device, by directly pipetting 3-4 μL of the cell suspension in each well. After loading the cells, 3 mL of corresponding media were added to each well of the multi-well plate, completely covering the devices.
To image the moving cells, the multi-well plate was placed on the motorized stage of a Zeiss Axiovert microscope fitted with an environmental chamber. The environment was set at 37.7° C. and 5% CO2. Cells were imaged using 10× objective and phase contrast. Three separate images from each array were acquired every 6 minutes for 24-48 hours. Because cell motility is restricted only along the capillary, in one linear dimension, the motility is easy to image and easy to quantify for extended periods of times. We have tracked cells for more than 72 hours.
To quantify the migration of individual cells, images were analyzed using the manual tracking function in the Image J software. The middle of cells was tracked through the series of frames and only cells entering the microcapillaries were tracked. At least 50 cells migrating through the capillaries were tracked for each condition. Average velocity over 12 hours was calculated from temporary velocities over each 6 minutes interval and presented as mean and standard error of the mean.
To probe into the mechanisms responsible for persistent cell migration, we exposed the cells to drugs that alter microtubule dynamics while performing the MMA described in Example 2 using the microfluidic device shown in FIG. 2.

[1] = MDA-MB231 breast cancer line, FIG. 11

Compound | kymograph analysis of single cell motility (nocodazole 0.05 ng/mL) | concentration at which migration of the fastest moving cells is inhibited (MDA-MB231 breast cancer line, FIG. 11, only Nocodazole) | concentration at which persistent motility is inhibited [1] | concentration that significantly altered the speed of migration for all cells in the population (all cells in the population) | effect on persistent migration behavior | concentration of significant decrease in motility (dose response) (migration through microcapillary array) | effect on speed of cancer cell migration through the microcapillary array | kymograph analysis of single cell motility (taxol 12 nM) | speed of the fastest cells under drug (Taxol between 1 and 10 μM, some cells only)
COC(=O)Nc1nc2ccc(C(=O)c3cccs3)cc2[nH]1 [Nocodazole] | frequent changes of direction and less persistence | above 1 ng/mL | above 0.5 ng/mL | > 1 µM | alteration of the persistent migration behavior | < 100 nM | significantly decrease the speed |  | 
CC(=O)O[C@H]1C(=O)[C@@]2(C)[C@H]([C@H](OC(=O)c3ccccc3)[C@]3(O)C[C@H](OC(=O)[C@H](O)[C@@H](NC(=O)c4ccccc4)c4ccccc4)C(C)=C1C3(C)C)[C@]1(OC(C)=O)CO[C@@H]1C[C@@H]2O [Taxol, Paclitaxel] |  |  | above 100 ng/mL |  | does not alter the persistent migration |  | significantly decrease the speed | persistent movement along the microcapillary; also recorded: reverses direction at the end of the microcapillary | > 100 μm/hour
